Source: patent US20050203065A1, “Method of treating ischemia reperfusion injury using adenosine receptor antagonists” (priority 2002, published 2005)

What was measured:
[1] = test system: open-chest, barbital-anesthetized dogs; experiment: Protocol III (reperfusion): 60 minutes occlusion and 3 hours reperfusion, drug from 10 minutes before release of occlusion, dogs; type: in vivo, dog
Protocol: The studies were performed in open-chest, barbital-anesthetized dogs instrumented to measure heart rate, blood pressure, left ventricular pressure, and regional myocardial blood flow (radioactive microspheres). A mechanical occluder was placed around a proximal portion of the left anterior descending coronary artery to produce ischemia and reperfusion. At the end of the experiments, infarct size was determined-by histochemical staining (patent blue dye and triphenyltetrazolium) and expressed as a percentage of the region at risk or as a percentage of the entire left ventricle.
In the reperfusion protocol (see FIG. 3, protocol III), the dogs were subjected to 60 minutes of coronary artery occlusion followed by three hours of reperfusion. […] The antagonists were administered at a dose of 1 mg/kg i.v. bolus followed by an infusion of 10 μg/kg/min for one hour.

[2] = target: T1, recombinant canine A3 adenosine receptors (Canis lupus familiaris, UniProt Q28309); experiment: Radioligand competition binding, canine A3 receptor (R-PIA), transfected HEK 293 membranes; conditions: mean ± SEM, n = 3
T1 construct: expressed in transfected cells
T1 sequence (Q28309 1-314): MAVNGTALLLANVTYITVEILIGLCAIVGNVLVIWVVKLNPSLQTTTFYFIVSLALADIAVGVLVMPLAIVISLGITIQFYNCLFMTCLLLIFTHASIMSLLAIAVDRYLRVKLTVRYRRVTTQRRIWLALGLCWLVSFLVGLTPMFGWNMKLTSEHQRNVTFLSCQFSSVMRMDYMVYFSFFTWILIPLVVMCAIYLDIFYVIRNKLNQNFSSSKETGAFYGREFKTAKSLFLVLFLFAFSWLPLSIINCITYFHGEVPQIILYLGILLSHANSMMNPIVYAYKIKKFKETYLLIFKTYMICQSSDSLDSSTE
Protocol: Membranes (40-70 μg membrane protein), radioligands, and varying concentrations of competing ligands were incubated in triplicate in 0.1 ml buffer HE plus 2 units/mL adenosine deaminase for 2.5 hours at 21° C. The radioligands used for competitive binding assays were: [^3H]-8-cyclopentyl-1,3-dipropyxanthine ([^3H]-DPCPX) (NEN, Boston, Mass.) for A1 and A2b adenosine receptors, [^3H]-4-(2-[7-amino-2-(furyl)(1,2,4)triazole(2,3-a)(1,3,5)triazin-5-ylaminoethyly)phenol ([^3H] ZM241385) for A2a adenosine receptors (Tocris, Bristol, UK), and [^125Iodine]-labeled N6-(4-aminobenzyl)-9-(5-(methylcarbonyl)-β-D-ribofuranosyl) adenine ([^125I]-AB-MECA) or [^3H]-R-N^6-phenylisopropyladenosine (H^3R]-R-PIA) for A3 adenosine receptors (both from NEN, Boston, Mass.). Nonspecific binding was measured in the presence of 10 μM 5′N ethylcarboxamidoadenosine (NECA, from RBI-Sigma, Natick, Mass.) for A1 and A2b receptors, or 10 μM xanthine amino congener (XAC, from RBI-Sigma, Natick, Mass.) for A2a receptors. Binding assays were terminated by filtration over Whatman GF/C glass fiber filters using a BRANDEL cell harvester (Gaithersburg, Md.). The-filters were rinsed three times with 3-4 mL ice-cold 10 mM Tris-HCl, pH 7.4 and 5 mM magnesium chloride (MgCl2) at 4° C., and were counted in a Wallac β-counter (Perkin Elmer, Boston, Mass.).

[3] = target: T2, recombinant rat A2b adenosine receptors (Rattus norvegicus, UniProt P29276); experiment: FLIPR calcium functional assay, rat A2b receptor in HEK-293 cells (NECA); type: cell-based; conditions: HEK293 cells
T2 construct: expressed in transfected cells; host or cells: HEK-293
T2 sequence (P29276 1-332): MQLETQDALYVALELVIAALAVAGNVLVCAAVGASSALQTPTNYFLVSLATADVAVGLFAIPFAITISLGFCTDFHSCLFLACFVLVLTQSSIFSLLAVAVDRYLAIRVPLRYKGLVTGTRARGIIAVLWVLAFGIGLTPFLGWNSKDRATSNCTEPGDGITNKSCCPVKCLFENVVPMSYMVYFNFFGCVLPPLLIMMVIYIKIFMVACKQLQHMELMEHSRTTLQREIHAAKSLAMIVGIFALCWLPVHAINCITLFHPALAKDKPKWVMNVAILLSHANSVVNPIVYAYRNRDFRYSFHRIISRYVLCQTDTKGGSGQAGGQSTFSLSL
Protocol: FIG. 10 depicts FLIPR assay of BG9928 with recombinant […] A2b adenosine receptors stably expressed in HEK-293 cells. FLIPR assays measuring the fraction of control response observed with 10, 100, and 300 nM BG9928 in HEK-293 cells expressing rat A2b adenosine receptors in the presence of increasing concentrations of the agonist (NECA) (top graph). The bottom graph is a Schild analysis of the data presented in the top graph.
Cells were seeded into 96-well tissue culture plates with black walls and clear bottoms, and cultured to an […] confluent monolayer. Without removing the media, an equal volume of dye (from calcium assay kit purchased from Molecular Devices) was added. Cell plates were incubated for 1 hour at 37° C. and were then transferred to the-FLIPR unit (Molecular Devices). […]
The FLIPR integrates an argon laser excitation source, a 96-well pipettor, and a detection system utilizing a CCD (Charged Coupled Device) imaging camera. Fluorescence emissions from the 96 wells were monitored simultaneously at excitation and emission wavelength of 488 and 520 nm, respectively. Fluorescence data were collected at 0.1-sec intervals before and after simultaneous rapid addition of compounds to the 96-well plate. Results were read as relative fluorescence units (RFU). […]

CCCn1c(=O)c2[nH]c(C34CCC(CCC(=O)O)(CC3)CC4)nc2n(CCC)c1=O [BG 9928, 3-[4-(2,6-dioxo-1,3-dipropyl-2,3,6,7-tetrahydro-1H-purin-8-yl)-bicyclo[2.2.2]oct-1-yl]-propionic acid]
Infarct size expressed as a percentage of the entire left ventricle, in words [1]: a significant reduction in infarct size was not observed | Relationship between infarct size and collateral blood flow compared to control group [1]: shifted downward | Reduction in infarct size (percentage of the risk region) ([1]; 1 mg/kg i.v. bolus + 10 μg/kg/min for one hour from 10 minutes before release of occlusion): 44% | Infarct size expressed as a percentage of the risk region, in words ([1]; administration during the early phase of reperfusion): reduced significantly | Ki [2]: 37.7 µM | pA2 ([3]; rat A2b, Schild analysis): 6.59 | Kb ([3]; rat, null methodology): 0.257 µM
